Results as given in BindingDB's records for doi:10.1016/j.bmcl.2008.12.074 (Boehringer Ingelheim (Canada), 2009).
pEC50, pIC50: −log10 of the molar value.

Key:
[1] = molecular target: T1, Gag-Pol polyprotein [588-1027] (Human immunodeficiency virus type 1 group M subtype B (isolate HXB2), UniProt P04585); test: Reverse Transcriptase Assay; conditions: pH 7.4; 37 °C
T1 construct: 588-1027

[2] = molecular target: T2, Gag-Pol polyprotein [588-1027,K691N,Y769C]/[588-1147,K691N,Y769C] (Human immunodeficiency virus 1, UniProt P04585, K691N/Y769C); test: Reverse Transcriptase Assay
T2 construct: 588-1027; 588-1147

| Structure (SMILES) | pIC50 [1] | pIC50 [2] | pEC50 [1] |
| --- | --- | --- | --- |
| Cc1ccc(-n2nnnc2SCC(=O)Nc2ccc(-c3ccc(CC(=O)O)cc3)cc2Cl)c(Cl)c1 [2-{4-[3-chloro-4-(2-{[1-(2-chloro-4-methylphenyl)-1H-1,2,3,4-tetrazol-5-yl]sulfanyl}acetamido)phenyl]phenyl}acetic acid] | 8.62 | 7.32 | – |
| Cc1ccc(-n2ncc(C)c2SCC(=O)Nc2ccc(-c3ccc(CC(=O)O)cc3)cc2Cl)c(Cl)c1 [2-{4-[3-chloro-4-(2-{[1-(2-chloro-4-methylphenyl)-4-methyl-1H-pyrazol-5-yl]sulfanyl}acetamido)phenyl]phenyl}acetic acid] | < 5.00 | < 5.00 | – |
| Cc1ccc(-c2c(SCC(=O)Nc3ccc(-c4ccc(OCC(=O)O)cc4)cc3Cl)ccn2C)c(Cl)c1 [2-{4-[3-chloro-4-(2-{[2-(2-chloro-4-methylphenyl)-1-methyl-1H-pyrrol-3-yl]sulfanyl}acetamido)phenyl]phenoxy}acetic acid] | < 6.00 | – | – |
| CC(C)(C)c1ccc(-c2c[nH]nc2OCC(=O)Nc2ccc(-c3ccc(CC(=O)O)cc3)cc2Cl)c(Cl)c1 [2-{4-[4-(2-{[4-(4-tert-butyl-2-chlorophenyl)-1H-pyrazol-3-yl]oxy}acetamido)-3-chlorophenyl]phenyl}acetic acid] | < 5.48 | – | – |
| Cc1ccc(-n2cc(C)nc2SCC(=O)Nc2ccccc2Cl)c(Cl)c1 [2-{[1-(2-chloro-4-methylphenyl)-4-methyl-1H-imidazol-2-yl]sulfanyl}-N-(2-chlorophenyl)acetamide] | < 6.00 | < 5.00 | – |
| Cc1[nH]nc(OCC(=O)Nc2ccc(C#CC(C)(C)CO)cc2Cl)c1-c1ccc(C(C)(C)C)cc1Cl [2-{[4-(4-tert-butyl-2-chlorophenyl)-5-methyl-1H-pyrazol-3-yl]oxy}-N-[2-chloro-4-(4-hydroxy-3,3-dimethylbut-1-yn-1-yl)phenyl]acetamide] | < 5.48 | – | < 5.30 |
